The source of these data is publication PMC8777265, “The Environmental Pollutant Bromophenols Interfere With Sulfotransferase That Mediates Endocrine Hormones” (Frontiers in Endocrinology, 2022).

As a reminder, the IC50 is the concentration that inhibits the measured activity by half. A higher IC50 goes with a need for much substance. A word on the Ki: it is a dissociation constant, usually derived from enzyme kinetics or from competition with a known ligand.

Holding throughout (format): biochemical
Assay [1] has as its target T1, SULT1B1 (Homo sapiens, UniProt O43704).
T1 construct: recombinant human enzyme, commercial (BD Gentest)
Description: PNP sulfation, UPLC-UV, […] inhibitor.

Assay [2] deals with T2, SULT1A3 (Homo sapiens, UniProt P0DMM9).
T2 construct: recombinant human enzyme, commercial (BD Gentest)
T2 sequence (P0DMM9 whole entry): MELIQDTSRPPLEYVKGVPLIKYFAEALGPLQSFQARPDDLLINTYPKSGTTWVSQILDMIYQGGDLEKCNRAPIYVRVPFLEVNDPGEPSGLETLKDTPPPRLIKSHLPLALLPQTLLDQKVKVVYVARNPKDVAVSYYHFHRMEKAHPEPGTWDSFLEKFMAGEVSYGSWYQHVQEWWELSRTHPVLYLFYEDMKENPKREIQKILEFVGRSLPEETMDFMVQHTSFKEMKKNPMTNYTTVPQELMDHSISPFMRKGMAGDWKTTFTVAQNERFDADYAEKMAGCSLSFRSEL
In words: PNP sulfation, UPLC-UV, […] inhibitor.

In assay [3] the target is T2, SULT1A3. Description: PNP sulfation, UPLC-UV, Lineweaver-Burk with slope replot.
Assay [4] has as its target T3, SULT1A1 (Homo sapiens, UniProt P50225).
T3 construct: recombinant human enzyme, commercial (BD Gentest)
Description: PNP sulfation, UPLC-UV, […] inhibitor.

The target of the next assay is T4, SULT1E1 (Homo sapiens, UniProt P49888).
T4 construct: recombinant human enzyme, commercial (BD Gentest)
T4 sequence (P49888 1-294): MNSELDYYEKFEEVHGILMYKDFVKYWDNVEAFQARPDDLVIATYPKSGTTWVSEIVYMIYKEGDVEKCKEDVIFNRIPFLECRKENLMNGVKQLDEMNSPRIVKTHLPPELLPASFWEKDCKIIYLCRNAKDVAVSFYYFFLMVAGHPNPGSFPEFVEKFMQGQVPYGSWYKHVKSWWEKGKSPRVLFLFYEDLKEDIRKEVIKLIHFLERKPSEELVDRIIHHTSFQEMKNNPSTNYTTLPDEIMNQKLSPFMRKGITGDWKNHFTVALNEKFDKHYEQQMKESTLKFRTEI
In words: PNP sulfation, UPLC-UV, […] inhibitor.

The target of assay [5] is T3, SULT1A1. In words: PNP sulfation, UPLC-UV, single-concentration screen. Particulars: 40 µM PNP, 40 µM PAPS, 5 mM MgCl2, 100 mM Tris-HCl pH 7.4, 37 °C.
Assay [6] concerns the target T1, SULT1B1. The description is as above. The conditions noted are these: 25 µM PNP, 40 µM PAPS, 5 mM MgCl2, 100 mM Tris-HCl pH 7.4, 37 °C.

T3 sequence (P50225 whole entry): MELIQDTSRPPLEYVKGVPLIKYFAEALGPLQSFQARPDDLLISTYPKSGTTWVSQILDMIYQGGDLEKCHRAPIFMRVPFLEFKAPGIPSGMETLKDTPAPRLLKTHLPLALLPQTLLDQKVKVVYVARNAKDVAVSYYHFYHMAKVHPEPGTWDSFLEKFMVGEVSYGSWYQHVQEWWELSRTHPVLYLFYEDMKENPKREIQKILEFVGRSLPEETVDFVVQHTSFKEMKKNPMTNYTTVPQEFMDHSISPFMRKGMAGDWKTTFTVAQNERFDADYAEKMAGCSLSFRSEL
T1 sequence (O43704 whole entry): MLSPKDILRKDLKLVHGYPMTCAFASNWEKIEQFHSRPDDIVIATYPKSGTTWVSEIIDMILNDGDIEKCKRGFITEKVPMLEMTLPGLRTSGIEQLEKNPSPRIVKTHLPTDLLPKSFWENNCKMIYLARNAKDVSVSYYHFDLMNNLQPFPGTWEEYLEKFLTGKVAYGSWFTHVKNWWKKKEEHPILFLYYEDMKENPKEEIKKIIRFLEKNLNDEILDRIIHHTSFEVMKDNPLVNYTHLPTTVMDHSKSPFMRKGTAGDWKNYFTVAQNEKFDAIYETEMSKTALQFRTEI

Turning to `Oc1c(Br)cc(Br)cc1Br` [2,4,6-TBP], the IC50 was 1.06 µM on SULT1B1 [1], 4.02 µM against SULT1A3 [2], 1.02 µM at SULT1A1 [4] and 6.06 µM against SULT1E1. Also, on SULT1A3 [3], the affinity, expressed as Ki, was 16.3 µM.
Consider `Oc1ccc(Br)cc1Br` [2,4-DBP], for which the IC50 against SULT1B1 [1] was 4.22 µM; on SULT1A3 [2] it was 25.5 µM; against SULT1A1 [4], 1.03 µM; on SULT1E1 it was 3.24 µM.
In the case of `Oc1cc(Br)ccc1Br` [2,5-DBP], the IC50 against SULT1B1 [1] stood at 5.42 µM; against SULT1A3 [2], 12.9 µM; against SULT1A1 [4], 1.24 µM.
`Oc1ccccc1Br` [2-BP]: the IC50 worked out at 1.07 µM against SULT1B1 [1], 8.88 µM against SULT1A3 [2], 1.03 µM against SULT1A1 [4] and 25.9 µM at SULT1E1.
Regarding `Oc1cccc(Br)c1` [3-BP], the “% inhibition at 100 μM” value on SULT1A1 [5] was 3-BP and 4-BP only showed strong inhibition ability towards SULT1A1 and SULT1B1; on SULT1B1 [6], 3-BP and 4-BP only showed strong inhibition ability towards SULT1A1 and SULT1B1.
